Patent publication US20260108521A1, “GSPT1 DEGRADERS, COMPOSITIONS COMPRISING THE DEGRADER, AND METHODS OF USING THE SAME” (BIOFRONT LTD, priority 2022, published 2026)

Columns and labels:
GSPT1 protein = target: T1, GSPT1 protein (Homo sapiens, UniProt P15170+Q96SW2); assay: GSPT1 degradation assay (western blot) in HL-60 cells; assay type: cell-based; conditions: GSPT1 protein level, 2h incubation, western blot normalized to beta-Actin; for inhibition at 0.1 µM: 0.1 μM compound; for inhibition at 1 µM: 1 μM compound
T1 construct: endogenous in cells; host or cells: HL-60 cells
Experimental: HL-60 cells (4×10^^6 cells/well) were seeded in 6-well culture plate (Costar, 3516) and treated with a variety of concentrations of test compound. After 2h incubation, cells were collected and lysed. The protein concentration was determined by BCA protein assay kit from Thermo (23227). The GSPT1 protein level was determined by western blots, using GSPT1 polyclonal antibody. Proteins were loaded into each well of the pre-casting gels and subjected to electrophoretic separation by SDS-PAGE. The protein resolved by SDS-PAGE were transferred to PVDF, blocked by 5% skim milk and probed with anti-GSPT1 antibody (Proteintech, 10763-1-AP) or anti-β-actin antibody (CST, 3700S), using following standard western blotting procedure. Blots intensities were quantified using ImageJ software and the intensity of GSPT1 bands were normalized to beta-Actin bands, respectively. The GSPT1 degradation results were then calculated. Reported compound C84971 (see WO2021126974A1 and WO2021126973A1) was used as a reference.

HL-60 cells = assay: Cell viability assay (CellTiter-Glo); assay type: cell-based; conditions: Homo sapiens, 72 h incubation, 6-point serial dilution
Experimental: HL-60 cells were seeded at a density of 7000 cells per well in 96-well culture plates (Corning 3903) with IMDM and treated with test compounds following a 6-point serial dilution. RPMI 1640 (0.1% DMSO) was used as control for each well. After 72 h incubation, cell viability was determined using the CellTiter-Glo assay kit (Promega, G9242) according to the manufacturer's instructions. The dose-response curves were determined and IC50 values were calculated using the GraphPad Prism software following a nonlinear regression method.

T1 sequence (P15170 whole entry): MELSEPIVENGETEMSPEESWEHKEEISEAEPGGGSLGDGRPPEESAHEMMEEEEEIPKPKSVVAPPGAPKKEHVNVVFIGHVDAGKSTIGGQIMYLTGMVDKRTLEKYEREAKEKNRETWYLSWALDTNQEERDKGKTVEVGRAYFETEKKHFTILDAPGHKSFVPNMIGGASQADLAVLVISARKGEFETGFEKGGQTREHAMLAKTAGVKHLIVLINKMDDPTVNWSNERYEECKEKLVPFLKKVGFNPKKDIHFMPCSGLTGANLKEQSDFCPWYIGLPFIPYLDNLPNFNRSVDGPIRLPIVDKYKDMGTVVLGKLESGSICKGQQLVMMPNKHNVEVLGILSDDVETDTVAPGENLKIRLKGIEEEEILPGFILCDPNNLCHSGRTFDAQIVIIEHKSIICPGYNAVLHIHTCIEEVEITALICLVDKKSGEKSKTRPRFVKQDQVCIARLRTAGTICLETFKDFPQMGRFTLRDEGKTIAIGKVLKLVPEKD
T1 sequence (Q96SW2 whole entry): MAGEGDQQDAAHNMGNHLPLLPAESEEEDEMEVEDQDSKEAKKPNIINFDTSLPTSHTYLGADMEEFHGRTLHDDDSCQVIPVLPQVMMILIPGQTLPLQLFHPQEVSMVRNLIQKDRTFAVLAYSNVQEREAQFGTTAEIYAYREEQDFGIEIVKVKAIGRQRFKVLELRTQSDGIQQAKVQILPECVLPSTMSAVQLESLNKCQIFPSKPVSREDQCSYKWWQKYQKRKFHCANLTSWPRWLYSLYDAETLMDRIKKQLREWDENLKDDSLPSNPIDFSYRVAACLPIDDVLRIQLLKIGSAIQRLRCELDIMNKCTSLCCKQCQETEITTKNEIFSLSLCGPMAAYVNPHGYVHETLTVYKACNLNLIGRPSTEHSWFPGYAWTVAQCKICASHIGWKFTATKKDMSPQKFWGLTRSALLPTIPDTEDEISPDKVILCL
T1 sequence (Q16531 whole entry partner): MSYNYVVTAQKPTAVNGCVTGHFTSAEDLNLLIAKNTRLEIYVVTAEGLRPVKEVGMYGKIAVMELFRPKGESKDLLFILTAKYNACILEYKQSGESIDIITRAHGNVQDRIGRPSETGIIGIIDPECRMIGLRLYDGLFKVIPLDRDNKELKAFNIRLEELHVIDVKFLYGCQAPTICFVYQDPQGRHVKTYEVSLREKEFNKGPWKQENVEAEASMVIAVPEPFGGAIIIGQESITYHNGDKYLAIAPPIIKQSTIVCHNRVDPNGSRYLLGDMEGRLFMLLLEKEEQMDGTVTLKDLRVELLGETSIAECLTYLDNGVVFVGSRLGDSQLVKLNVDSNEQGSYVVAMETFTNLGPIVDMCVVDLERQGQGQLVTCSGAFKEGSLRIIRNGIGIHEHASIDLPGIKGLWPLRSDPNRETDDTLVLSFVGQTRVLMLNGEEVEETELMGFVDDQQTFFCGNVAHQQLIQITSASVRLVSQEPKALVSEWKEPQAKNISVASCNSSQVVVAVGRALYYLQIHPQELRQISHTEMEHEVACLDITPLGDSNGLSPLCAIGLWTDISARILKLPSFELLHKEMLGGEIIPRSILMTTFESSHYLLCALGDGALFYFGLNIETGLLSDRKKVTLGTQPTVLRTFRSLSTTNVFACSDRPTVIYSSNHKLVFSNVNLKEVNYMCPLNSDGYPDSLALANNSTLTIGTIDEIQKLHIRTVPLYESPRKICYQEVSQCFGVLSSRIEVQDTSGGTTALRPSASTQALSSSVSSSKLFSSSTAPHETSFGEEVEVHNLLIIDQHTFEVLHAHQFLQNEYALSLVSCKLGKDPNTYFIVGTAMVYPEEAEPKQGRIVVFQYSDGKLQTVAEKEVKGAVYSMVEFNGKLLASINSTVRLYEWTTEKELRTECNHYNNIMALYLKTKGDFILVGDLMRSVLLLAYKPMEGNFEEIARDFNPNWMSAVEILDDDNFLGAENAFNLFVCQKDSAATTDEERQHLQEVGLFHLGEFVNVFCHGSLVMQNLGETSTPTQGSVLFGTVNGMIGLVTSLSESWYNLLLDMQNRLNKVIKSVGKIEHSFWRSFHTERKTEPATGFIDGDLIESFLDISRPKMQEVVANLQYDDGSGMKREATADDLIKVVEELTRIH

O=C1CCC(N2C(=O)c3ccc(N4CC(CCN5CCCN(c6cccc(-c7cnc8c(cnn8C8CC8)c7)c6)C5=O)C4)cc3C2=O)C(=O)N1 (stereo not drawn) [Compound 22, 5-(3-(2-(3-(3-(1-cyclopropyl-1H-pyrazolo[3,4-b]pyridin-5-yl)phenyl)-2-oxotetrahydropyrimidin-1(2H)-yl)ethyl)azetidin-1-yl)-2-(2,6-dioxopiperidin-3-yl)isoindoline-1,3-dione]
inhibition at 0.1 µM (GSPT1 protein): 29% | inhibition at 1 µM (GSPT1 protein): 29% | IC50 (HL-60 cells): > 1000 nM

CCc1c[nH]c2ncc(-c3cccc(N4CCCN(CC5CCN(c6ccc7c(c6)C(=O)N(C6CCC(=O)NC6=O)C7=O)CC5)C4=O)c3)c(Cl)c12 (stereo not drawn) [Compound A, 5-(4-((3-(3-(4-chloro-3-ethyl-1H-pyrrolo[2,3-b]pyridin-5-yl)phenyl)-2-oxotetrahydropyrimidin-1(2H)-yl)methyl)piperidin-1-yl)-2-(2,6-dioxopiperidin-3-yl)isoindoline-1,3-dione]
inhibition at 0.1 µM (GSPT1 protein): 85% | inhibition at 1 µM (GSPT1 protein): > 95% | IC50 (HL-60 cells): 10 nM

O=C1CCC(N2C(=O)c3ccc(N4CCC(CN5CCCN(c6cccc(-c7cnccc7Cl)c6)C5=O)CC4)cc3C2=O)C(=O)N1 (stereo not drawn) [Compound 3, 5-(4-((3-(3-(4-chloropyridin-3-yl)phenyl)-2-oxotetrahydropyrimidin-1(2H)-yl)methyl)piperidin-1-yl)-2-(2,6-dioxopiperidin-3-yl)isoindoline-1,3-dione]
inhibition at 0.1 µM (GSPT1 protein): 30% | inhibition at 1 µM (GSPT1 protein): 48% | IC50 (HL-60 cells): 234 nM

CCc1c[nH]c2ccc(-c3cccc(N4CCCN(CCC5CN(c6ccc7c(c6)C(=O)N(C6CCC(=O)NC6=O)C7=O)C5)C4=O)c3)nc12 (stereo not drawn) [Compound 27, 2-(2,6-dioxopiperidin-3-yl)-5-(3-{2-[3-(3-{3-ethyl-1H-pyrrolo[3,2-b]pyridin-5-yl}phenyl)-2-oxo-1,3-diazinan-1-yl]ethyl}azetidin-1-yl)isoindole-1,3-dione]
inhibition at 0.1 µM (GSPT1 protein): 45% | inhibition at 1 µM (GSPT1 protein): 70% | IC50 (HL-60 cells): 397 nM

O=C1CCC(N2Cc3cc(N4CCC(CN5CCCN(c6ccccc6)C5=O)CC4)ccc3C2=O)C(=O)N1 (stereo not drawn) [Compound 19, 3-(1-oxo-5-(4-((2-oxo-3-phenyltetrahydropyrimidin-1(2H)-yl)methyl)piperidin-1-yl)isoindolin-2-yl)piperidine-2,6-dione]
inhibition at 0.1 µM (GSPT1 protein): 15% | inhibition at 1 µM (GSPT1 protein): 38% | IC50 (HL-60 cells): > 1000 nM

CCc1c[nH]c2ncc(-c3cccc(N4CCCN(CCC5CN(c6ccc7c(c6)C(=O)N(C6CCC(=O)NC6=O)C7=O)C5)C4=O)c3)c(Cl)c12 (stereo not drawn) [Compound F, 5-(3-(2-(3-(3-(4-chloro-3-ethyl-1H-pyrrolo[2,3-b]pyridin-5-yl)phenyl)-2-oxotetrahydropyrimidin-1(2H)-yl)ethyl)azetidin-1-yl)-2-(2,6-dioxopiperidin-3-yl)isoindoline-1,3-dione]
inhibition at 0.1 µM (GSPT1 protein): 86% | inhibition at 1 µM (GSPT1 protein): 95% | IC50 (HL-60 cells): 9.2 nM

O=C1CCC(N2C(=O)c3ccc(N4CCC(CN5CCCN(c6cccc(Br)c6)C5=O)CC4)cc3C2=O)C(=O)N1 (stereo not drawn) [Compound 9, 5-(4-((3-(3-bromophenyl)-2-oxotetrahydropyrimidin-1(2H)-yl)methyl)piperidin-1-yl)-2-(2,6-dioxopiperidin-3-yl)isoindoline-1,3-dione]
inhibition at 0.1 µM (GSPT1 protein): 0% | inhibition at 1 µM (GSPT1 protein): 15% | IC50 (HL-60 cells): > 1000 nM

O=C1CCC(N2Cc3ccc(N4CCNC4=O)cc3C2=O)C(=O)N1 (stereo not drawn) [Compound C84971, reference compound]
inhibition at 0.1 µM (GSPT1 protein): 0% | inhibition at 1 µM (GSPT1 protein): 0% | IC50 (HL-60 cells): > 5000 nM

O=C1CCC(N2C(=O)c3ccc(N4CCC(CN5CCCN(c6cccc(C7CC7)c6)C5=O)CC4)cc3C2=O)C(=O)N1 (stereo not drawn) [Compound 15, 5-(4-((3-(3-cyclopropylphenyl)-2-oxotetrahydropyrimidin-1(2H)-yl)methyl)piperidin-1-yl)-2-(2,6-dioxopiperidin-3-yl)isoindoline-1,3-dione]
inhibition at 0.1 µM (GSPT1 protein): 30% | inhibition at 1 µM (GSPT1 protein): 57% | IC50 (HL-60 cells): 290 nM
